The results in this text go back to EP0472573B1, “HERBICIDE RESISTANT MAIZE” (ZENECA LIMITED, priority 1989, dated 1990).

One experiment has as its system Mutant 9 plants. Description: Cross-resistance testing (glasshouse dose response), Mutant 9. It is filed as in vivo, Zea mays. Conditions: pre-emergence spray, assessed after four weeks growth. The text has this: (§1) The seeds used in this screen were populations of mixed tolerant and sensitive seed, segregating 1:1, derived from each of the heterogygous, tolerant mutants crossed with homozygous, sensitive UE95. All of the tolerant progeny are heterozygous for tolerance. Each of the mutants identified above were used except mutant 4. The controls were seed of self-pollinated UE95 which was pollinated in the same year as the tolerant lines.
(§2) One litre of compost was placed in each seed tray of dimensions 19cm x 11cm x 5cm deep and firmed down flat. Two furrows 1 cm deep were drawn in the surface of the compost in each tray and six seeds were sown in each furrow (total twelve seeds per tray). Some trays were sown with 24 seeds, in which case three furrows were made and 8 seeds sown per furrow.
(§3) In each test each tray contained either the seed of one mutant or of the UE95 control for each herbicide application rate and for the untreated control.
(§4) Five different types of ALS-inhibitor herbicides were tested on the mutants plus imazethapyr (PURSUIT) as a comparison. Four rates of each were applied; approximately 0.1x, 0.5x, 1x and 4x the estimated field rates for each herbicide. The rates are the same for mutant 3 to 10 but higher rates for chlorimuron (CLASSIC) and lower rates for chlorsulfuron (GLEAN) were applied to mutants 1 and 2.
(§5) The rates of application used in the screening tests were as follows: chlorimuron (CLASSIC) 4,20,40,160 g/Ha (mutants 1 and 2); and, 8,40,80,320 g/Ha (mutants 3 to 10); chlorsulfuron (GLEAN) 5,25,50,200 g/Ha (mutants 1 and 2); and, 1,5,10,40 g/Ha (mutants 3 to 10); imazaquin (SCEPTER) 30,150,300,1200 g/Ha; triazolopyrimidine 5,25,50,200 g/Ha; phenoxypyrimidine 10,50,100,400 g/Ha; and, imazethapyr (PURSUIT) 30,150,300,1200 g/Ha The triazolopyrimidine and phenoxypyrimidine were formulated in an adjuvant wetting agent known as JF5969 and diluted with water to make a final concentration of 10% JF5969. The remaining compounds were diluted with water only.
(§6) The spray jet and parameters were as decribed above under "SCREENING". After spraying, the seeds were covered with 0.5 litre of compost and firmed down flat (2.5cm covering) and grown under the conditions described under "SCREENING" above.
(§7) Visual assessments were made of the plants after four weeks growth. Each plant was scored on a scale of zero to 5 and the height measured from soil surface to the tallest leaf tip. The scoring scale was as follows: 0 - 0 to 10% damage (little or no herbicidal effect) 1 - 11 to 25% damage 2 - 26 to 50% damage 3 - 51 to […] 4 - 81 to 95% damage 5 - 96 to 100% damage (complete death of the plant) In carrying out these assessments, plants which were obviously of the sensitive phenotype were ignored (approximately 50% of the plants). […]

In experiment [1] the target is ALS enzyme extracted from Mutant 7 (heterozygous). Description: ALS enzyme assay, heterozygous Mutant 7. Format: biochemical, Zea mays. Particulars: for pIC50: ALS of heterozygous Mutant 7, read-out: ID50% (the source's name); for resistance group, Enzyme Assay: Mutant 7, groups Strong, Intermediate, Weak, Zero; for Fold Increase: fold increase in resistance vs wild type, heterozygous Mutant 7, 30 min. The procedure:
(§8) Seeds of generation M₁BC₁ M₁BC₂ of the nine mutants were sprayed pre-emergence with the herbicide imazethapyr (PURSUIT) (Trade Mark) at a rate of 250 g/ha and grown in a growth chamber (16 hour day, 27°C; 8 hour night, 17°C). Plants were harvested after 11 days.
(§9) Four grams of leaf material were harvested from just above the first leaf axis and ground in a mortar and pestle in 20ml of a solution containing 40mM Tricine (Trade Mark), 10mM EDTA, 5mM pyruvate, 80 »M flavin adenine dinucleotide (FAD), 1mM dithiothreitol (DTT), pH 8, plus 0.8g Polyclar AT. The homogenate was pressed through four layers of muslin and centrifuged at 30,000g for 20 minutes.
(§10) The supernatant was brought to 65% saturation with ammonium sulphate, left to precipitate for 30 minutes and then centrifuged at 30.000g for 20 minutes. The pellet was resuspended in 2.5ml of 40mM Tricine, 10mM EDTA, 5mM pyruvate, 80»M FAD, 25% (v/v) glycerol, 1mM DTT, pH 8, and desalted into 3.5ml of 40mM Tricine, 10mM EDTA, 25% (v/v) glycerol, 1mM DTT, pH 8.
(§11) One hundred microlitres of the enzyme extract was used for each assay. Final reagent concentrations were: 120mM Tricine, 50mM pyruvate, 10mM MgCl₂, […], 93»M thiamine pyrophosphate (TPP), pH 8, in the presence or absence of a herbicide of interest, in a volume of 750 »l. Incubations were carried out at 37°C for 30 minutes. Reactions were stopped with 250»l of 1.84M sulphuric acid, and decarboxylation of the acetolactate carried out at 37°C for 75 minutes, or at 60°C for 30 minutes. Assay blanks had sulphuric acid added prior to the enzyme extract. To the samples and blanks 650»l of α-naphthol in 2.73M NaOH/0.16%(w/v) creatine were added followed by incubation at 37°C for 30 minutes. After centrifugation at 30,000g the optical density of the supernatant was read at 540nm.
(§12) The assay procedure described was carried out on ALS enzyme extracted from each of the nine mutants for the following herbicides: imazethapyr (PURSUIT) imazapyr (ARSENAL) imazaquin (SCEPTER) chlorsulfuron (GLEAN) chlorimuron (CLASSIC) […] (HARMONY) The enzyme activity graphs are given as Figures 3 to 8. In addition, homozygous lines of mutants 1 and 2 which were selected from generation M₁BC₁S₂, were also tested against the same group of herbicides and against representatives of the triazolopyrimidines and phenoxypyrimidines. The chemical structures of these herbicides are shown in Figure 2 of the accompanying drawings.
(§13) From the enzyme assay data it is possible to derive, as a measure of the degree of inhibition the factor ID50% for each mutant and for each herbicide. This factor is indicative of the herbicide concentration which gives 50% inhibition of the ALS activity in comparison with the wild-type control. It is also possible to derive the fold increase in resistance.

Another experiment deals with Mutant 8 plants. Description: Cross-resistance testing (glasshouse dose response), Mutant 8. Format: in vivo, Zea mays. Conditions: pre-emergence spray, assessed after four weeks growth.
Source text: as §1, §2, §3, §4, §5, §6, §7

In another experiment the test system is Mutant 7 plants. The experiment is described as follows: Cross-resistance testing (glasshouse dose response), Mutant 7. Format: in vivo, Zea mays. Conditions: pre-emergence spray, assessed after four weeks growth.
Source text: as §1, §2, §3, §4, §5, §6, §7

The target of experiment [2] is ALS enzyme extracted from Mutant 2 (heterozygous). The experiment is described as follows: ALS enzyme assay, heterozygous Mutant 2. It is filed as biochemical, Zea mays. Particulars: for pIC50: ALS of heterozygous Mutant 2, read-out: ID50% (the source's name); for resistance group, Enzyme Assay: Mutant 2, groups Strong, Intermediate, Weak, Zero; for Fold Increase: fold increase in resistance vs wild type, heterozygous Mutant 2, 30 min. The procedure: as §8, §9, §10, §11, §12, §13

The target in experiment [3] is ALS enzyme extracted from Mutant 5 (heterozygous). Description: ALS enzyme assay, heterozygous Mutant 5. It is filed as biochemical, Zea mays. Conditions: for pIC50: ALS of heterozygous Mutant 5, read-out: ID50% (the source's name); for resistance group, Enzyme Assay: Mutant 5, groups Strong, Intermediate, Weak, Zero; for Fold Increase: fold increase in resistance vs wild type, heterozygous Mutant 5, 30 min. The procedure:
as §8, §9, §10, §11, §12, §13

Experiment [4] has as its target ALS extracted from leaves of MUTANT 2 (homozygous). Description: ALS enzyme assay, homozygous Mutant 2. It is filed as biochemical, Zea mays. Particulars: for pIC50: ALS of homozygous Mutant 2, read-out: ID50% Mutant; for Fold Increase: fold increase in resistance vs wild type, homozygous Mutant 2, 30 min. The procedure:
as §9, §10, §11, §12, §13

pIC50: −log10 of the molar value.

For `COc1cc(Cl)nc(NC(=O)NS(=O)(=O)c2ccccc2C(=O)O)n1` [Chlorimuron, chlorimuron], the “resistance group, Dose Response” value with Mutant 9 plants, in the experiment on Mutant 8 plants and in the experiment on Mutant 7 plants was “Zero” throughout. For the same compound, the pIC50 was 8.30 in experiment [1], 8.00 in experiment [2], 7.77 in experiment [3] and 7.70 in experiment [4]. For the same compound, the “resistance group, Enzyme Assay” value in experiment [1], in experiment [2] and in experiment [3] was “Weak” each time. Also, the “Fold Increase” value came out at 1 in experiment [1], 3 in experiment [2], 5 in experiment [3] and 5.4 in experiment [4].

Take `COc1nc(C)nc(NC(=O)NS(=O)(=O)c2ccccc2Cl)n1` [Chlorsulfuron, chlorsulfuron]: the “resistance group, Dose Response” value was “Weak and Zero” in the experiment with Mutant 9 plants; “Zero” in the experiment on Mutant 8 plants; “Weak” in the experiment with Mutant 7 plants. Also, the pIC50 in experiment [1] was 8.10; in experiment [2], 7.19; in experiment [3] it was 7.40; in experiment [4] it was 7.40. For the same compound, the “resistance group, Enzyme Assay” value is given as “Zero” in experiment [1], “Weak” in experiment [2] and “Weak” in experiment [3]. Besides, the “Fold Increase” value turned out to be 1 in experiment [1], 4 in experiment [2], 2 in experiment [3] and 2.2 in experiment [4].

Consider `CC(C)C1(C)N=C(c2nc3ccccc3cc2C(=O)O)NC1=O` (centres unmarked) [Imazaquin, imazaquin], for which the “resistance group, Dose Response” value was “Strong” with Mutant 9 plants, “Strong” in the experiment on Mutant 8 plants and “Zero” with Mutant 7 plants. For the same compound, the pIC50 was 6.00 in experiment [1], 4.70 in experiment [2], 4.60 in experiment [3] and 4.40 in experiment [4]. Besides, the “resistance group, Enzyme Assay” value is listed as “Weak” in experiment [1], “Intermediate” in experiment [2] and “Intermediate” in experiment [3]. Moreover, the “Fold Increase” value in experiment [1] is listed as 2; in experiment [2], 33; in experiment [3] it was 42; in experiment [4], 66.

With `CCc1cnc(C2=NC(=O)C(C)(C(C)C)N2)c(C(=O)O)c1` (centres unmarked) [Imazethapyr, 5-ethyl-2-(5-iso-propyl-5-methyl-4-oxo-2-imidazolin-2-yl) nicotinic acid], the “resistance group, Dose Response” value with Mutant 9 plants is given as “Strong”; in the experiment on Mutant 8 plants, “Strong”; in the experiment with Mutant 7 plants, “Weak”. Also, the pIC50 was 5.40 in experiment [1], 3.64 in experiment [2], 3.90 in experiment [3] and 3.40 in experiment [4]. Further, the “resistance group, Enzyme Assay” value in experiment [1] was “Weak”; in experiment [2], “Intermediate”; in experiment [3], “Intermediate”. The “Fold Increase” value is on record as 3 in experiment [1], 153 in experiment [2], 83 in experiment [3] and 267 in experiment [4].
